One data set concerns the target T1, Gonadotropin-releasing hormone receptor (Homo sapiens, UniProt P30968).
T1 sequence (P30968 whole entry): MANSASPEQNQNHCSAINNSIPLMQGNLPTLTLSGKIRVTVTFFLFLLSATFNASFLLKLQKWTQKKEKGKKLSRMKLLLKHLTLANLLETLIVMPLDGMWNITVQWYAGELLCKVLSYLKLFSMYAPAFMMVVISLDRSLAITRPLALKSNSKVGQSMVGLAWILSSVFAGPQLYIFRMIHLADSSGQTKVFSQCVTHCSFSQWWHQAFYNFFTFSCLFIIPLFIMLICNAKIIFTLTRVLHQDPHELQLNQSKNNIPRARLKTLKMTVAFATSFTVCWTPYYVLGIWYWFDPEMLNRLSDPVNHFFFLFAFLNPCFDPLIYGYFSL
As to the kind of experiment: Binding affinity towards cloned human Gonadotropin-releasing hormone receptor expressed in RBL cells was determined by using [125I]GnRH as radioligand. It is filed as cell-based.
On to `Cc1c(-c2csc(Nc3ccc([N+](=O)[O-])cc3)n2)c(=O)n(C[C@H](N)c2ccccc2)c(=O)n1Cc1c(F)cccc1F`, for which the Ki was determined as 0.16 µM.
The same measure, in the same setting: the figure for `Cc1nc(-c2c(C)n(Cc3c(F)cccc3F)c(=O)n(C[C@H](N)c3ccccc3)c2=O)cs1` is 0.12 µM; for `Cc1c(-c2csc(-c3ccc(C(F)(F)F)cc3)n2)c(=O)n(C[C@H](N)c2ccccc2)c(=O)n1Cc1c(F)cccc1F` it is 0.047 µM; for `Cc1c(-c2csc(NCc3ccccc3)n2)c(=O)n(C[C@H](N)c2ccccc2)c(=O)n1Cc1c(F)cccc1F` it is 0.035 µM.
Still for that read-out and setting: as for `Cc1c(-c2csc(-c3ccc(F)cc3)n2)c(=O)n(C[C@H](N)c2ccccc2)c(=O)n1Cc1c(F)cccc1F`, the figure is 0.042 µM.
In turn, `Cc1c(-c2csc(-c3ccccc3)n2)c(=O)n(C[C@H](N)c2ccccc2)c(=O)n1Cc1c(F)cccc1F` displayed a Ki of 0.026 µM.
Same read-out and setting: the figure for `CCOC(=O)Nc1ccc(-c2nc(-c3c(C)n(Cc4c(F)cccc4F)c(=O)n(C[C@H](N)c4ccccc4)c3=O)cs2)cc1` is 0.007 µM; for `CCNc1nc(-c2c(C)n(Cc3c(F)cccc3F)c(=O)n(C[C@H](N)c3ccccc3)c2=O)cs1` it is 0.27 µM.
In the case of `Cc1c(-c2csc(Nc3ccccc3)n2)c(=O)n(C[C@H](N)c2ccccc2)c(=O)n1Cc1c(F)cccc1F`, the Ki amounted to 0.07 µM.
In turn, `Cc1c(-c2csc(N3CCOCC3)n2)c(=O)n(C[C@H](N)c2ccccc2)c(=O)n1Cc1c(F)cccc1F` yielded a Ki of 1.5 µM.
Same read-out and setting: the figure for `Cc1ccc(Nc2nc(-c3c(C)n(Cc4c(F)cccc4F)c(=O)n(C[C@H](N)c4ccccc4)c3=O)cs2)c(C)c1` is 0.13 µM.
For `Cc1c(-c2csc(N(C)c3ccccc3)n2)c(=O)n(C[C@H](N)c2ccccc2)c(=O)n1Cc1c(F)cccc1F`, affinity was put at a Ki of 0.034 µM.
`Cc1c(-c2csc(-c3ccc4c(c3)CCO4)n2)c(=O)n(C[C@H](N)c2ccccc2)c(=O)n1Cc1c(F)cccc1F` had a Ki of 0.02 µM.
Consider `Cc1c(-c2csc(-c3cccc(C(F)(F)F)c3)n2)c(=O)n(C[C@H](N)c2ccccc2)c(=O)n1Cc1c(F)cccc1F`, for which the affinity, expressed as Ki, was 0.15 µM.
On the same count and under the same terms, the figure for `Cc1c(-c2csc(-c3ccccc3Cl)n2)c(=O)n(C[C@H](N)c2ccccc2)c(=O)n1Cc1c(F)cccc1F` is 0.03 µM; for `Cc1c(-c2cccs2)c(=O)n(C[C@H](N)c2ccccc2)c(=O)n1Cc1c(F)cccc1F` it is 0.01 µM; for `COc1ccccc1Nc1nc(-c2c(C)n(Cc3c(F)cccc3F)c(=O)n(C[C@H](N)c3ccccc3)c2=O)cs1` it is 0.13 µM.
The same measure, in the same setting: the figure for `Cc1c(-c2ccc(Cl)cc2)c(=O)n(C[C@H](N)c2ccccc2)c(=O)n1Cc1c(F)cccc1F` is 0.014 µM.
Same read-out and setting: as for `Cc1ccccc1Nc1nc(-c2c(C)n(Cc3c(F)cccc3F)c(=O)n(C[C@H](N)c3ccccc3)c2=O)cs1`, the figure is 0.21 µM.
Turning to `Cc1c(-c2csc(Cc3ccccc3)n2)c(=O)n(C[C@H](N)c2ccccc2)c(=O)n1Cc1c(F)cccc1F`, the Ki is 0.009 µM.
Same read-out and setting: the figure for `Cc1ccc(-c2nc(-c3c(C)n(Cc4c(F)cccc4F)c(=O)n(C[C@H](N)c4ccccc4)c3=O)cs2)cc1` is 0.018 µM; for `Cc1c(-c2ccc(Cl)s2)c(=O)n(C[C@H](N)c2ccccc2)c(=O)n1Cc1c(F)cccc1F` it is 0.002 µM.
The same measure, in the same setting: as for `Cc1c(-c2csc(-c3ccc(C(C)(C)C)cc3)n2)c(=O)n(C[C@H](N)c2ccccc2)c(=O)n1Cc1c(F)cccc1F`, the figure is 0.5 µM; as for `COc1ccc(Nc2nc(-c3c(C)n(Cc4c(F)cccc4F)c(=O)n(C[C@H](N)c4ccccc4)c3=O)cs2)cc1`, 0.042 µM.
Same read-out and setting: the figure for `Cc1c(-c2csc(N)n2)c(=O)n(C[C@H](N)c2ccccc2)c(=O)n1Cc1c(F)cccc1F` is 3 µM.
For the compound `Cc1ccc(-c2c(C)n(Cc3c(F)cccc3F)c(=O)n(C[C@H](N)c3ccccc3)c2=O)s1`, the Ki stood at 0.003 µM.
Same read-out and setting: as for `Cc1c(-c2csc(-c3ccc(Cl)cc3)n2)c(=O)n(C[C@H](N)c2ccccc2)c(=O)n1Cc1c(F)cccc1F`, the figure is 0.015 µM; as for `COc1ccc(Nc2nc(-c3c(C)n(Cc4c(F)cccc4F)c(=O)n(C[C@H](N)c4ccccc4)c3=O)cs2)cc1OC`, 0.033 µM.
Still for that read-out and setting: as for `Cc1ccc(Nc2nc(-c3c(C)n(Cc4c(F)cccc4F)c(=O)n(C[C@H](N)c4ccccc4)c3=O)cs2)cc1`, the figure is 0.049 µM; as for `Cc1ccc(-c2nc(-c3c(C)n(Cc4c(F)cccc4F)c(=O)n(C[C@H](N)c4ccccc4)c3=O)cs2)cc1F`, 0.049 µM.

Tested on in a further data set: not listed separately
As to the kind of experiment: In vitro intrinsic clearance after incubation with human liver microsomes (HLM). It is filed as ADME, Microsome. (In general: Microsomes from liver hold many membrane-bound enzymes, among them those of drug oxidation.)
Regarding `COc1cccc(-c2c(C)n(Cc3c(F)cccc3F)c(=O)n(C[C@@H](C)N(C)Cc3ccccn3)c2=O)c1`, the CLint scaled was found to be 102 L/h/kg.
Still for that read-out and setting: the figure for `Cc1ccc(-c2nc(-c3c(C)n(Cc4c(F)cccc4F)c(=O)n(C[C@H](N)c4ccccc4)c3=O)cs2)cc1` is 2.16 L/h/kg.
Still for that read-out and setting: as for `Cc1c(-c2csc(-c3ccc(Cl)cc3)n2)c(=O)n(C[C@H](N)c2ccccc2)c(=O)n1Cc1c(F)cccc1F`, the figure is 2.76 L/h/kg.

For orientation: Ki means the equilibrium dissociation constant of an inhibitor or competing ligand from its target. Low readings indicate higher affinity, high ones lower affinity. Usually CLint scaled stands for the rate of metabolic loss divided by the concentration. A higher CLint scaled goes with rapid turnover.
